In patent publication US8623377B2, “Joint-homing peptides and uses thereof” (University of Maryland, Baltimore, priority 2011, dated 2014):

Key:
[1] = test system: hind paw joints of arthritic Lewis rats; assay: Histopathological evaluation of hind paw joints of arthritic rats; type: in vivo, Lewis rat; details: H&E-stained hind paw sections
Description: FIG. 3A: Group of arthritic Lewis rats (n=4 per group) were injected with a peptide (AD, NQR, or RGD) or PBS i.v. on the days indicated by the arrows either at the onset or just after the onset of arthritis. The its were monitored regularly for the disease severity, presented as “arthritic score”. […] The sections were graded for histopathological features associated with arthritis. B, bone; C, cartilage, JS, joint space; SIC, synovium-infiltrating cells.
The synthetic peptide corresponding to the selected phage-encoded peptide was diluted in PBS and injected i.v. into Lewis rats beginning either at the onset or just after the onset of arthritis after Mtb injection. The peptide was injected to rats on alternate days at a dose of 1 or 2 mg/kg body weight. A total of three or four injections were given to each rat. Control animals received an equal volume of PBS. All rats were graded regularly for clinical signs of arthritis (36). The hind paws of these rats were harvested and processed for histopathological examination.
Hind paws of rats were harvested, skinned, and fixed with 10% phosphate buffered formalin (Fisher Scientific) for 3-7 d (1). […] Tissue sections (5 μm) were placed on a glass slide, stained with H&E (Sigma-Aldrich), and assessed for morphological changes and cellular infiltrates.

[2] = test system: leukocyte infiltration into the joints of arthritic rats; assay: In vivo migration of PKH67-labeled leukocytes into the joints; design: species or system Lewis rat
[3] = test system: HUVECs attachment to vitronectin; assay: Attachment of HUVECs to vitronectin; type: cell-based, human; details: peptide 30-800 μg/mL, 1 h on vitronectin-coated wells
Description: HUVECs were first suspended in F-12K medium containing the indicated concentrations of NQR, AK or RGD peptide and then incubated for 1 h in microtiter wells coated with vitronectin. The number of cells that attached to vitronectin was quantified. The results of three independent experiments are shown. *P<0.05, compared with the baseline control.
The attachment of HUVECs to vitrnectin was quantified as described (37, 38). Microtiter wells were coated overnight at 4° C. with 2 μg/mL of vitronectin (BD Biosciences). These wells were then blocked for 1 h at 37° C. with 10 mg/mL of BSA (Sigma-Aldrich). In parallel, HUVECs (1.5×10^5 cells/mL) suspended in F-12K medium containing 10% FBS were incubated for 15 min at 37° C. with different concentrations (30-800 μg/mL) of NQR, ADK, or RGD peptide. Thereafter, this cell suspension 100 μL/well) was added to the vitronectin-coated wells, followed by incubation at 37° C. for 1 h. After washing, the number of attached cells was determined using crystal violet (Fisher Scientific).

[4] = test system: ERK1/2; assay: VEGF-induced signaling in HUVECs, Western blot p-ERK1/2; type: cell-based, human; details: peptide 10, 50, 100 μg/mL 1 h, then VEGF 10 ng/mL 20 min
Source text: (§1) FIG. 6A: HUVECs were stimulated with VEGF and treated with the indicated concentrations of peptides. Phosphorylated ERK1/2 and Akt, as well as total ERK1/2 and Akt, were detected by Western blot analysis. FIG. 6B: Thereafter, p-ERK1/2 and p-Akt were quantified by densitometry, normalized to total ERK1/2 (left) and Akt (right), respectively, and compared with cells in serum-free medium. The results of a representative experiment from a set of three independent experiments are shown. *P<0.05, compared with the positive control.
(§2) HUVECs were grown in F-12K medium in the presence of endothelial cell growth supplement (ECGS) (BD Biosciences) and 15% FBS. Confluent cells were starved in basal medium (without ECGS and FBS) for 6 h. Then the cells were pretreated for 1 h with different concentrations (10, 50, and 100 μg/mL) of a peptide (NQR, ADK, or RGD) in fresh basal medium, followed by treatment with VEGF (10 ng/mL) for another 20 min. The conditional medium was discarded, and the cells were lysed using a lysis buffer containing protease inhibitors and phosphatase inhibitors. The cell lysate was then centrifuged, and the resulting supernatant was used for analysis of signaling molecules using specific antibodies to human pERK1/2, ERK1/2, pAkt, Akt, and GAPDH (Cell Signaling Technology) by Western blot analysis. The intensity of the bands in the gel was quantified by densitometry. The levels of p-ERK1/2 and p-Akt were normalized to total ERK1/2 and Akt, respectively, and compared with cells in serum-free medium.

[5] = test system: Akt; assay: VEGF-induced signaling in HUVECs, Western blot p-Akt; type: cell-based, human; details: peptide 10, 50, 100 μg/mL 1 h, then VEGF 10 ng/mL 20 min
Source text: as §1, §2

CLDNQRPKC (Synthetic peptide homing to joint in an animal) [NQR peptide, joint-homing phage-derived synthetic peptide]
joint damage (histopathology) versus PBS-treated arthritic rats [1]: much less damage | cell type on which the effect on infiltration was more marked ([2]; CD3+ T cells vs CD11b/c+ myeloid cells, flow cytometry): more marked on CD3+ T cells than on CD11b/c+ myeloid cells | leukocyte infiltration into the joints ([2]; versus nontreated arthritic or ADK-treated arthritic rats, 24 h after cell transfer): significantly less leukocyte infiltration | effect on attachment of HUVECs to vitronectin [3]: Neither peptide had any effect | effect on VEGF-induced pERK [4]: induced a decrease in pERK | effect on VEGF-induced pAkt [5]: had no effect on pAkt
